Reference: patent US20240181014A1 (priority 2021, published 2024)
Read-outs that look alike come from different tables or passages of the source.

Key:
[1] = compounded ALA (injection, suppository, topical, troche; intravenous); cited from earlier work
[2] = system: post-COVID-19 syndrome patients; format: in vivo, human

| SMILES | safety concerns in available clinical reports [1] | blood oxygenation value pO2 at end of treatment ([2]; Example 4, patient) [mmHg] | status at control visit ([2]; Example 4, patient) | external oxygen supply ([2]; Example 4, patient, needed intermitted oxygenation before) | blood oxygenation value pO2 at room air ([2]; Example 4, patient, pO2 92 mmHg before) [mmHg] | breathing at end of treatment ([2]; Example 4, patient, severe difficulties to breath before) | breathing at end of treatment ([2]; Example 5, patient) | status at control visit ([2]; Example 5, patient) | blood oxygenation value pO2 at room air at end of treatment ([2]; Example 5, patient, pO2 93 mmHg before) [mmHg] | ability to work at end of treatment ([2]; Example 5, patient, unable to work due to extreme fatigue and cough before) |
| --- | --- | --- | --- | --- | --- | --- | --- | --- | --- | --- |
| O=C(O)CCCC[C@@H]1CCSS1 [ALA, (R)-5-(1,2-Dithiolan-3-yl)pentanoic acid] | no serious safety concerns |  |  |  |  |  |  |  |  |  |
| CC[C@H](C)[C@H](NC(=O)[C@H](CO)NC(=O)[C@H](CC(N)=O)NC(=O)[C@H](CC(C)C)NC(=O)[C@H](Cc1ccc(O)cc1)NC(=O)[C@H](CCCCN)NC(=O)[C@H](CCCCN)NC(=O)[C@@H](NC(=O)[C@H](C)NC(=O)[C@H](CCSC)NC(=O)[C@H](CCC(N)=O)NC(=O)[C@H](CCCCN)NC(=O)[C@H](CCCNC(=N)N)NC(=O)[C@H](CC(C)C)NC(=O)[C@H](CCCNC(=N)N)NC(=O)[C@@H](NC(=O)[C@H](Cc1ccc(O)cc1)NC(=O)[C@H](CC(N)=O)NC(=O)[C@H](CC(=O)O)NC(=O)[C@@H](NC(=O)[C@H](Cc1ccccc1)NC(=O)[C@@H](NC(=O)[C@H](C)NC(=O)[C@H](CC(=O)O)NC(=O)[C@H](CO)NC(=O)[C@@H](N)Cc1c[nH]cn1)C(C)C)[C@@H](C)O)[C@@H](C)O)C(C)C)C(=O)N[C@@H](CC(C)C)C(=O)N[C@@H](CC(N)=O)C(N)=O [Aviptadil] |  | 97 | considered healthy | off external oxygen supply | 96 | breathed normally | breathed normally | considered healthy without any further post-COVID symptoms | 98 | returned to their professional work |
